# Measurements from patent US20170058314A1, “NOVEL METHODOLOGY FOR IDENTIFYING ANTI-PERSISTER ACTIVITY AND ANTIMICROBIAL SUSCEPTIBILITY FOR BORRELIA BURGDORFERI AND OTHER BACTERIA” (priority 2014, published 2017).
# Tested on: log phase and stationary phase B. burgdorferi culture
# Experiment: Antibiotic exposure assay, SYBR Green I/PI (drugs alone and combinations)
# Procedure, shortened: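 Stationary-phase or round-body B. burgdorferi exposed 7 days at 33 °C to drugs alone or combined at 10 μg/mL each (single-compound screen: 50 μM final). Viability by SYBR Green I/PI, ex 485, em 535/635 nm; percent live from regression of green/red ratio, corrected by direct microscopy counting.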
compound,measurement,setting,value
C[C@H]1c2cccc(O)c2C(=O)C2=C(O)[C@]3(O)C(=O)C(C(N)=O)=C(O)[C@@H](N(C)C)[C@@H]3[C@@H](O)[C@@H]21 [Doxycycline],"Live cell %, ten day old stationary phase culture (in brackets)","10 μg/mL drugs or combinations, 7 days",72%
same,viability at 10 µg/mL,"Borreliella burgdorferi, 168 h, read-out: Live Cell % (residual viable B. burgdorferi), ten-day-old stationary phase culture enriched with micro-colonies, 10 μg/mL each drug, 7 days",72%
